According to patent USRE50663E1, “Heterocycle derivatives as pesticides” (Bayer Aktiengesellschaft, priority 2017, dated 2025):

Columns and labels:
[1] = test system: caterpillars of the fall armyworm (Spodoptera frugiperda); test: Spodoptera frugiperda spray test; format: in vivo; conditions: foliar, 168 h, 100 g/ha, after 7 days, maize leaf discs, read-out: efficacy
In short: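 Maize leaf discs sprayed with compound formulated in acetone/dimethylformamide and diluted in water with 1000 ppm alkylaryl polyglycol ether emulsifier, then infested with fall armyworm caterpillars once dry. Efficacy read after 7 days as % caterpillars killed (100% = all dead, 0% = none).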

[2] = test system: southern root-knot nematode (Meloidogyne incognita); test: Meloidogyne incognita test; format: in vivo; conditions: 20 ppm, after 14 days, lettuce
Experimental: Solvent: 125.0 parts by weight of acetone
To produce a suitable active compound formulation, 1 part by weight of active compound is mixed with the stated amount of solvent and the concentrate is diluted to the desired concentration with water.
Vessels are filled with sand, active compound solution, an egg/larvae suspension of the southern root-knot nematode (Meloidogyne incognita) and lettuce seeds. The lettuce seeds germinate and the plants develop. The galls develop on the roots.
After 14 days, the nematicidal efficacy in % is determined by the formation of galls. 100% means that no galls were found; 0% means that the number of galls on the treated plants corresponds to the untreated control.

[3] = test system: green peach aphids (Myzus persicae); test: Myzus persicae oral test; format: in vivo; conditions: 120 h, 4 ppm, after 5 days, read-out: efficacy
Experimental: Solvent: 100 parts by weight of acetone
To produce a suitable active compound formulation, 1 part by weight of active compound is dissolved with the stated parts by weight of solvent and made up to the desired concentration with water.
50 μl of the active compound formulation are transferred into microtitre plates and made up to a final volume of 200 μl with 150 μl of IPL41 insect medium (33%+15% sugar). Subsequently, the plates are sealed with parafilm, which a mixed population of green peach aphids (Myzus persicae) within a second microtitre plate is able to puncture and imbibe the solution.
After 5 days, the efficacy in % is determined. 100% means that all the aphids have been killed; 0% means that no aphids have been killed.

[4] = test system: green peach aphid (Myzus persicae); test: Comparative Myzus persicae spray test (MYZUPE); format: in vivo; conditions: 144 h, 6 dat, read-out: % efficacy
Experimental: (§1) Solvent: 14 parts by weight of dimethylformamide
(§2) Emulsifier: alkylaryl polyglycol ether
(§3) To produce a suitable active compound formulation, 1 part by weight of active compound is dissolved with the specified parts by weight of solvent and made up to the desired concentration with water containing an emulsifier concentration of 1000 ppm. To produce further test concentrations, the formulation is diluted with emulsifier-containing water. If the addition of ammonium salts or/and penetrants is required, these are each added in a concentration of 1000 ppm to the formulation solution.
Bell pepper plants (Capsicum annuum) severely infested with the green peach aphid (Myzus persicae) are treated by spraying with the active ingredient formulation in the desired concentration.
After the desired time, the kill in % is determined. 100% means that all the animals have been killed; 0% means that no animals have been killed.

[5] = logP by HPLC on reversed-phase column (C18), acidic range; format: physicochemical; conditions: reversed-phase HPLC column (C18), formic acid in water/acetonitrile
Experimental: The logP values were determined according to EEC Directive 79/831 Annex V.A8 by HPLC (high-performance liquid chromatography) on a reversed-phase column (C18) using the following methods:
Calibration was carried out using a homologous series of straight-chain alkan-2-ones (having 3 to 16 carbon atoms) with known logP values. The values between successive alkanones are determined by linear regression.

[6] = test system: caterpillars of the armyworm (Spodoptera frugiperda); test: Comparative Spodoptera frugiperda spray test (SPODFR); format: in vivo; conditions: 168 h, 7 dat, read-out: % efficacy
Experimental: as §1, §2, §3
Cotton leaves (Gossypium hirsutum) are sprayed with an active ingredient formulation of the desired concentration and populated with caterpillars of the armyworm (Spodoptera frugiperda).
After the desired time, the kill in % is determined. 100% means that all caterpillars have been killed; 0% means that none of the caterpillars have been killed.

Q: For CCS(=O)(=O)c1c(-c2nc3cc(C(F)(F)F)cnc3n2C)nc2cc(C3(C#N)CC3)ccn12 [Example I-11, 1-{3-(Ethylsulfonyl)-2-[3-methyl-6-(trifluoromethyl)-3H-imidazo[4,5-b]pyridin-2-yl]imidazo[1,2-a]pyridin-7-yl}cyclopropanecarbonitrile], which pest or weed control at 100 g/ha [1] is on record?
A: 100%

Q: What about the “nematicidal efficacy (formation of galls)” value [2] of the same compound?
A: 100%

Q: What about the pest or weed control at 4 ppm [3] of the same compound?
A: 90%

Q: And the Emax at 0.8 ppm [4]?
A: 90%

Q: What about the chromatographic logP [5] of the same compound?
A: 2.88

Q: And the Emax at 0.16 ppm [6]?
A: 100%
